Inhibition and IC50 data for 1 compound are collected here from ChEMBL document CHEMBL4507292 (2021).

The inhibition is the share of the control response that was lost under treatment. A word on the IC50: it is the concentration at which inhibition is half-maximal. A lower IC50 goes with greater potency in that assay.

The target in experiment [1] is 5-hydroxytryptamine receptor 2A (Homo sapiens) (UniProt P28223). The conditions noted are these: Compound concentration 10.0 uM.
Experiment [2] addresses Prostaglandin E2 receptor EP3 subtype (Homo sapiens, UniProt P43115). Kind of experiment: (§1) Prostanoid EP3 Eurofins-Panlabs radioligand binding assay. The arrangement: ligand concentration 0.5 nM, non-specific ligand with concentration 10 µM Prostaglandin EŽ2 (PGE2), incubation time 60 min, incubation temperature 25 °C.
Experiment [3] deals with T1, Prostaglandin E2 receptor EP3 subtype (Homo sapiens) (UniProt P43115).
T1 sequence (whole entry): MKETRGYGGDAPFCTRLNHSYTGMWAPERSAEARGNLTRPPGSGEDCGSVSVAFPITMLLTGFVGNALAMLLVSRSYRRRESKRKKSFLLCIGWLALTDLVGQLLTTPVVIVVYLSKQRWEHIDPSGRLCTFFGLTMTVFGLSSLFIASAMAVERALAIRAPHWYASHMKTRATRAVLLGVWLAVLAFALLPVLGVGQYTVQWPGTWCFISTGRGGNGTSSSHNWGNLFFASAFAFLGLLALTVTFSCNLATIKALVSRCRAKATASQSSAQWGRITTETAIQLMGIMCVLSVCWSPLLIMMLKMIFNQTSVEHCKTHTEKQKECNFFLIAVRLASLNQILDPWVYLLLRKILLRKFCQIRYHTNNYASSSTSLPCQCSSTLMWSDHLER
The description is as §1. The arrangement: ligand concentration 0.5 nM, non-specific ligand with concentration 10 µM Prostaglandin EŽ2 (PGE2), incubation time 60 min, incubation temperature 25 °C.

Experiment [4] has as its target Prostaglandin F2-alpha receptor (Homo sapiens) (UniProt P43088). Put plainly: Prostanoid FP Eurofins-Panlabs radioligand binding assay. The conditions noted are these: Compound concentration 10.0 uM. The arrangement: ligand concentration 0.95 nM.

SMILES strings stand for the structures.

Sequence of 5-hydroxytryptamine receptor 2A (Homo sapiens) (P28223 whole entry): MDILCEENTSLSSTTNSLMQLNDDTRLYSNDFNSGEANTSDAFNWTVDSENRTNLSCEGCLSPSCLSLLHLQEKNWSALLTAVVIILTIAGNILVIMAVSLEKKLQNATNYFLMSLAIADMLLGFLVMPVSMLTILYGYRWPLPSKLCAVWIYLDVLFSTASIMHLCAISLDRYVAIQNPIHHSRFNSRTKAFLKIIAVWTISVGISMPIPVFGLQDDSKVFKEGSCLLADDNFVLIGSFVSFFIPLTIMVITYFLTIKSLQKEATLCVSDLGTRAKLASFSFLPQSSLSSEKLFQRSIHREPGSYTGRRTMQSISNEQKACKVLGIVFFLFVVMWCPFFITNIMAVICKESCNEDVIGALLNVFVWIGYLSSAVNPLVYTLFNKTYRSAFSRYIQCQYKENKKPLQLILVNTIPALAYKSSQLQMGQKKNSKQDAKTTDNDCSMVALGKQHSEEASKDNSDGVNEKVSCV
Sequence of Prostaglandin F2-alpha receptor (Homo sapiens) (P43088 whole entry): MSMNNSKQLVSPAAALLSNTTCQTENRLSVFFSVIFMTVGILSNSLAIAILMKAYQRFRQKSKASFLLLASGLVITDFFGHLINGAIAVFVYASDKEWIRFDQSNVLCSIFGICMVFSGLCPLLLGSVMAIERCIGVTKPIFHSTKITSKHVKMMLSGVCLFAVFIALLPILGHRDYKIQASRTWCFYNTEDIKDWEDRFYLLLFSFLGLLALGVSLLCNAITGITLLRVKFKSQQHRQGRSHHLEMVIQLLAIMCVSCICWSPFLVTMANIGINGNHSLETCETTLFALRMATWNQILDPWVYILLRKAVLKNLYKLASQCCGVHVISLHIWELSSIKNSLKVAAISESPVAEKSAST

For the compound `O=C(O)c1cc(-c2ccc(C3CCNCC3)cc2)c2ccc(-c3ccc(C(F)(F)F)cc3)cc2c1` [PPTN], the inhibition in experiment [1] is 42%; in experiment [3] (Compound concentration 0.01 uM), 11%; in experiment [3] (Compound concentration 0.1 uM) it was 14%; in experiment [3] (Compound concentration 1.0 uM), 4%; in experiment [3] (Compound concentration 10.0 uM) it was 53%; in experiment [4], 15%. In experiment [2], this compound yielded an IC50 of 9.27 µM.
